Patent US20220073532A1, “INHIBITORS OF CGAS ACTIVITY AS THERAPEUTIC AGENTS” (BELLBROOK LABS, LLC, priority 2019, published 2022)
Like-named read-outs stand apart in the source and are kept apart here.

Legend:
Mouse cGAS = Mouse cGAS (Mus musculus, UniProt Q8C6L5); test: cGAS enzymatic assay with mouse cGAS; type: biochemical
Experimental: Biochemical and biophysical analysis: Potency and MOA studies, including Mn^2+ sensitivity, are performed using the cGAS enzymatic assay. Dose response experiments are used to determine IC50 values under basal conditions (5 mM MgCl2, 100 μM ATP/GTP), and with the addition of physiological levels of Mn (0.2 mM) using human and mouse cGAS. Ligand optimization is driven by potency with the human enzyme; potency with mouse cGAS informs selection of an appropriate disease model for efficacy studies. Competition with ATP and GTP is assessed by comparing basal IC50 values to those in the presence of saturating ATP or GTP, and subsequently confirmed by measuring velocity vs. substrate at varying ATP or GTP levels. Inhibitor residence times (1/koff) are used as a key parameter for prioritizing compounds and driving SAR, because a longer residence time often results from an allosteric mechanism, and can also correlate with improved cellular activity. The cGAS enzymatic assay is used with the jump dilution method to measure residence times (inhibitor dissociation rates), as described for kinases using the very similar ADP assay. Biophysical methods, including SPR and TSA, are used as orthologous methods for residence time measurements and kd estimates.

cGAS = cGAS (Homo sapiens, UniProt Q8N884); test: cGAS enzymatic assay (FP/TR-FRET detection of cGAMP); type: biochemical; set-up: The cGAS assay was used to screen 100,000 compounds with full-length human cGAS; 6xHis; made in house
Chain of cGAS (Q8N884 whole entry): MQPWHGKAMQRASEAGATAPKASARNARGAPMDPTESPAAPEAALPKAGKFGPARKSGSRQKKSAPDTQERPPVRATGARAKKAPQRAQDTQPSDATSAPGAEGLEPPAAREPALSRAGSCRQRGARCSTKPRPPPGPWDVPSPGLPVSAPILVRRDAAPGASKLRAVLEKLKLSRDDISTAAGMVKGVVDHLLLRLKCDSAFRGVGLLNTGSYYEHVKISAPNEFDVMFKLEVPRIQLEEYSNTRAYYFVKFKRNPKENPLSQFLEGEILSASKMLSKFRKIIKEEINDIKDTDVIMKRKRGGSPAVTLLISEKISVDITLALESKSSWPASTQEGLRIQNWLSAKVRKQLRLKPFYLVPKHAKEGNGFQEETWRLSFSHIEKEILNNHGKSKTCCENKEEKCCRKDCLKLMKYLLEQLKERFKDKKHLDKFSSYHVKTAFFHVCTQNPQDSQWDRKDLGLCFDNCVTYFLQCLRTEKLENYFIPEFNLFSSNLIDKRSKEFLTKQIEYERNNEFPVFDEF
Method in brief: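 Homogeneous enzymatic assay with FP and TR-FRET read-outs, full-length enzyme at 30 nM. IC50 from dose-response under basal conditions (5 mM MgCl2, 100 μM ATP/GTP), also with 0.2 mM Mn added; values reported as letter bins from A (<100 nM) to E (>10 μM).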

Chain of Mouse cGAS (Q8C6L5 whole entry): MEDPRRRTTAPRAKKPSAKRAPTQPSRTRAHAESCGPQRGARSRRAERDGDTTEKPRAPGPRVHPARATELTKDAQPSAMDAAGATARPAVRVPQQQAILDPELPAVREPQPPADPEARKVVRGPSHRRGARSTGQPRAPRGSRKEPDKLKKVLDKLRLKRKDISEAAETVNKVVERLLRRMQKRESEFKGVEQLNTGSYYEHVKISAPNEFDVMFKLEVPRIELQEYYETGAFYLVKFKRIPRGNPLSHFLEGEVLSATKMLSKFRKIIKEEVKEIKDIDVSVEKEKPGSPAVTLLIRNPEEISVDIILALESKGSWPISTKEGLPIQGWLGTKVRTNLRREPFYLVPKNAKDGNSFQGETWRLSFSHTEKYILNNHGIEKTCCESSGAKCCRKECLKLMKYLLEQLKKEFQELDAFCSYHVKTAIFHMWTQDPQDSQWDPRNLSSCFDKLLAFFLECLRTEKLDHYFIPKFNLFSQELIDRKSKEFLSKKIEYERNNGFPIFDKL

IC50 (Mouse cGAS): > 150000 nM | IC50 (cGAS; 5 mM Mg^2+, 0.2 mM Mn^2+, read-out: IC50 (5 mM Mg^2+, 0.2 mM Mn^2+)): 10800 ± 2400 nM | IC50 (cGAS; 5 mM Mg^2+, read-out: IC50 (5 mM Mg^2+)): 1260 ± 570 nM | IC50 (cGAS; cGAS (30 nM), with Mn^2+, read-out: Inhibition cGAS + Mn^2+): 1000 to 10000 nM | IC50 (cGAS; cGAS (30 nM), read-out: Inhibition cGAS): 500 to 1000 nM | MOA (cGAS; competition with ATP): ATP Competitive
Structure (SMILES): Cc1nc(N2CCC[C@H]2C(=O)O)c2oc3ccccc3c2n1 [Compound 15, (2-methylbenzofuro[3,2-d]pyrimidin-4-yl)-L-proline]
